Data set [1] relates to P. cynomolgi hypnozoites and schizonts. The experiment in a line: in vitro liver-stage P. cynomolgi assay in primary rhesus hepatocytes. The note with it: read-out: inhibition IC50. It counts as cell-based, Plasmodium cynomolgi. As for the experimental part: (§1) The liver-stage P. cynomolgi assay was designed to identify anti-hypnozoite drugs utilizing a 384-well in vitro culture system[31],[37]. Briefly, cryopreserved primary simian hepatocytes (donor lots XGB, OQB, and QHO: BioIVT, Inc.) were seeded in collagen-coated 384-well plates and infected with P. cynomolgi bastianellii (B strain) sporozoites dissected from infected Anopheles dirus mosquitoes. Test compounds were solubilized in 100% DMSO and serially diluted 2-fold to generate up to a 12-point dose-response curve, maintaining a final DMSO concentration of 0.1% across all wells. Two distinct treatment modes were evaluated. For the prophylactic assay, to assess the prevention of infection, compound exposure began 1-hour post-infection with daily media changes on Days 1 and 2. For the radical cure assay, to assess activity against established liver forms, drugs were administered daily from Day 4 through Day 7 post-infection. […] For readout on Day 8, plates were fixed and stained via immunofluorescence to visualize parasite forms (hypnozoites and schizonts) and hepatocyte nuclei, and images were acquired using an Operetta CLS high-content imaging system (PerkinElmer). Host hepatocyte viability was measured in parallel to determine compound toxicity. Parasite forms were automatically quantified using Harmony 4.9 software, and percent inhibition and toxicity were calculated relative to in-plate DMSO vehicle controls. IC50 and CC50 (half-maximal cytotoxic concentrations) were determined by fitting dose-response data to a four-parameter logistic (variable slope) model using a custom Python script incorporating a grid search algorithm.

A further data set deals with rhesus hepatocytes. The experiment in a line: host hepatocyte viability in the P. cynomolgi assay. It counts as cell-based. The note with it: radical cure mode; read-out: cytotoxicity CC50. Here is the method: as §1
In data set [2] the test system is P. falciparum NF54 oocysts in mosquitoes. Description: tarsal contact assay. It counts as in vivo, P. falciparum in Anopheles gambiae G3. The note with it: 5% by weight film, 6 min contact. Here is the method: The tarsal assay using a thin film was performed. For preparation of a thin film, 25 mL xylenes and 1.0 g low density polyethylene polymer were combined on the lid of a glass petri dish (6 cm) and heated at 150 °C until the polymer was dissolved. Xylenes were occasionally replenished upon evaporation. A solution of xylenes containing […] prodrug was then added to the above solution. […] The crude polymer thin film was then put underneath the glass petri dish, and the assembled apparatus was heated on a hot plate with a weight placed on top. The resulting extruded polymer thin film containing the 5% (w/w) […] prodrug in low-density polyethylene (LDPE) was allowed to cool and removed from the petri dish lid. […] After exposure, the mosquitoes were immediately transferred to a cage and one hour later provided with cultured P. falciparum NF54 gametocyte-infected erythrocytes using a membrane feeder. […] On Day 7 post-infection, mosquitoes were aspirated into 80% ethanol and incubated at -20 °C for 10 min before being transferred to 1X PBS for dissection. […] Midguts were imaged and oocysts counted at 100× magnification on an Olympus Inverted CKX41 microscope to quantify oocyst prevalence and intensity.

Data set [3] can be described thus: pilot safety study in rhesus monkeys. The note with it: response to reviewers. It counts as in vivo.

Where two headings read alike, the source gives them in different places. Bounds are passed on as bounds.

`CNC(=O)c1ccc(-c2cnc3cnc(C(=O)N(C)c4ccc(Cl)cc4)cn23)cc1` [KDU691]: the half-maximal inhibitory concentration (IC50) (in general, the concentration that gives 50% inhibition) in data set [1] (prophylactic mode, hypnozoite) is 120 nM; in data set [1] (prophylactic mode, schizont), 98 nM; in data set [1] (radical cure mode, hypnozoite), over 20000 nM; in data set [1] (radical cure mode, schizont) it was 190 nM. Besides, the CC50 (commonly the concentration that lowers cell viability or growth by half) in the data set on rhesus hepatocytes was over 20000 nM.
`CCOC(=O)Oc1c2ccc(Oc3ccc(OC(F)(F)F)cc3)cc2nc2cc(Cl)cc(F)c12` [T111 prodrug]: in data set [2], the “reduction in oocyst intensity (inhibition)” value came out at 97.6% and the “reduction in oocyst prevalence (inhibition)” value was 92.5%. Further, the tolerability entry in data set [3] is “well-tolerated”.
